The target of one test is T1, MET kinase (Homo sapiens, UniProt P08581).
T1 construct: purchased SignalChem
The test can be described thus: MET kinase assay (AlphaScreen, counter screen). It is filed as biochemical. Particulars: read-out: Ranking of IC50 values, MET. The essentials:
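IC50 came from duplicate serial dilutions, with AlphaScreen detection of phosphorylated biotin-poly(Glu4:Tyr1). The reaction used 1 ng recombinant MET, 10 µM ATP […], and MOPS pH 7.0/MgCl2 buffer, ran 45 min at 30 °C, and was quenched with EDTA.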
A general note: Alpha assays give light when donor and acceptor beads are brought close together.

Test [1] relates to THP-1 human acute monocytic leukemia cell with NRAS G12D mutation. The test can be described thus: THP-1 cell proliferation assay (counter screen). It is filed as cell-based. Particulars: Homo sapiens, THP-1 cells, 72 hours treatment, CellTiter96, read-out: anti-proliferation activity THP-1 NRAS N12D, IC50 ranking. The essentials: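 Viability measured as 490 nm absorbance after 2–4 h with CellTiter96 AQueous One reagent, following 72 h treatment with rising compound concentrations. THP-1 cells, 5000/well, grown in RPMI 1640 with 10% FBS and 0.05 mM 2-mercaptoethanol at 37° C, 5% CO2, plated overnight before dosing.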
(In general: Counterscreens check selectivity or assay interference.)

Test [2] deals with HCC827 NSCLC cell with EGFR exon 19 deletion mutation. The test can be described thus: HCC827 cell proliferation assay (counter screen). It counts as cell-based, human. Particulars: Homo sapiens, HCC827 cells, 72 hours treatment, CellTiter96, read-out: anti-proliferation activity HCC827 EGFR Exon19 del, IC50 ranking. In a few lines: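 HCC827 cells (EGFR exon 19 deletion) were seeded at 8000 cells/well in RPMI1640 with 10% FBS, then exposed to increasing compound concentrations for 72 h at 37 °C. Viability was read by CellTiter96 AQueous One (MTS), absorbance 490 nm after 2–4 h.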

Another test has as its target T2, PDGFRα kinase (Homo sapiens, UniProt P16234).
T2 construct: purchased SignalChem
Briefly: PDGFRα kinase assay (AlphaScreen). It is filed as biochemical. Particulars: read-out: Ranking of IC50 values, PDGFRα. The essentials: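 IC50 values came from duplicate serial dilutions, with product read by AlphaScreen. The reaction ran 30 min at 30 °C, then EDTA stop: 1.5 ng recombinant enzyme, biotin-poly(Glu4:Tyr1) substrate, 10 μM ATP, 10 mM MOPS pH 7.0, 10 mM MgCl2.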

For test [3], the system named is A375 melanoma cell with BRAF V600E mutation. Briefly: A375 cell proliferation assay (counter screen). It counts as cell-based, human. Particulars: Homo sapiens, A-375, A375 cells, 72 hours treatment, CellTiter96, read-out: anti-proliferation activity A375 BRAF V600E, IC50 ranking. The essentials: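 A375 cells (BRAF V600E) seeded at 2000 cells/well in DMEM with 10% FBS, settled overnight at 37° C, 5% CO2, then exposed to increasing compound concentrations for 72 hours. Viability read by MTS-type CellTiter96 AQueous reagent, absorbance at 490 nm after 2–4 hours.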

Test [4] relates to Molm-14 human acute myeloid leukemia cell with FLT3-ITD mutation. Briefly: Molm-14 cell proliferation assay (CellTiter 96). It counts as cell-based. Particulars: Homo sapiens; Molm-14 cells, 72 hours treatment, CellTiter96; read-out: anti-proliferation activity Molm-14 (FLT3-ITD), IC50 ranking. In a few lines: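 Molm-14 (FLT3-ITD AML) cells in RPMI 1640 with 10% heat-inactivated FBS were seeded at 25000 cells/well, incubated overnight at 37° C, 5% CO2, then treated with increasing compound concentrations for 72 hours. Viability was read as absorbance at 490 nm after 2˜4 hours with CellTiter96 AQueous One reagent.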

Consider 15 compounds from patent US12448394B2, “Heterocyclic pyrazole derivatives as type III receptor tyrosine kinase inhibitors” (DEVELOPMENT CENTER FOR BIOTECHNOLOGY, priority 2019, dated 2025).

Some results are limits rather than exact numbers.

T2 sequence (P16234 24-1089): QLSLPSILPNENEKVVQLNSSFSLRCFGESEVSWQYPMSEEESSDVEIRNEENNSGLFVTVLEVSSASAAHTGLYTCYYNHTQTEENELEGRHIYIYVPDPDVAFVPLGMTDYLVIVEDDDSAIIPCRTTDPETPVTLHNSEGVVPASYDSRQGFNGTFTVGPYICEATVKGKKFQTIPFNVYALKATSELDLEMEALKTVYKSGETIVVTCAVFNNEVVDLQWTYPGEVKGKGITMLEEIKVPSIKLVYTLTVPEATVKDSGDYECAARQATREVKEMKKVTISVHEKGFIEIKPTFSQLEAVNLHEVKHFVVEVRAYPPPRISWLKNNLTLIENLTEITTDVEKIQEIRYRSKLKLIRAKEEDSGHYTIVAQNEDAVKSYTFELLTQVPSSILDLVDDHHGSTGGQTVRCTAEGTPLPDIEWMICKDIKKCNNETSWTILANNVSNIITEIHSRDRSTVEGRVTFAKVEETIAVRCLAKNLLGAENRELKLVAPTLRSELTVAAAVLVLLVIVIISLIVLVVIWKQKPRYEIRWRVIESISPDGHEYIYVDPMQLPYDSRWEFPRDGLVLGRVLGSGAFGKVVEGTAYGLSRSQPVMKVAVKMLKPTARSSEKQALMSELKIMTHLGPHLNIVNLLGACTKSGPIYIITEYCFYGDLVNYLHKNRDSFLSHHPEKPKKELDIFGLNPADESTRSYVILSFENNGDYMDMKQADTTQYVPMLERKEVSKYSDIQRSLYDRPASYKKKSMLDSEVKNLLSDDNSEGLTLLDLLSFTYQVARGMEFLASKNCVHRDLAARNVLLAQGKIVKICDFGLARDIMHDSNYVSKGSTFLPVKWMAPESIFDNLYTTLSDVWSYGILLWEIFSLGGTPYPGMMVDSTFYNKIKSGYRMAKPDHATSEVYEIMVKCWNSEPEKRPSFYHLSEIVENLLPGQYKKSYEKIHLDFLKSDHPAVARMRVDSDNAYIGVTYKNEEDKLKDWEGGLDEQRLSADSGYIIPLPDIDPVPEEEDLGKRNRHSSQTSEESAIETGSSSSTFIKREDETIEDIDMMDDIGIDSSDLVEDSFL
T1 sequence (P08581 25-1390): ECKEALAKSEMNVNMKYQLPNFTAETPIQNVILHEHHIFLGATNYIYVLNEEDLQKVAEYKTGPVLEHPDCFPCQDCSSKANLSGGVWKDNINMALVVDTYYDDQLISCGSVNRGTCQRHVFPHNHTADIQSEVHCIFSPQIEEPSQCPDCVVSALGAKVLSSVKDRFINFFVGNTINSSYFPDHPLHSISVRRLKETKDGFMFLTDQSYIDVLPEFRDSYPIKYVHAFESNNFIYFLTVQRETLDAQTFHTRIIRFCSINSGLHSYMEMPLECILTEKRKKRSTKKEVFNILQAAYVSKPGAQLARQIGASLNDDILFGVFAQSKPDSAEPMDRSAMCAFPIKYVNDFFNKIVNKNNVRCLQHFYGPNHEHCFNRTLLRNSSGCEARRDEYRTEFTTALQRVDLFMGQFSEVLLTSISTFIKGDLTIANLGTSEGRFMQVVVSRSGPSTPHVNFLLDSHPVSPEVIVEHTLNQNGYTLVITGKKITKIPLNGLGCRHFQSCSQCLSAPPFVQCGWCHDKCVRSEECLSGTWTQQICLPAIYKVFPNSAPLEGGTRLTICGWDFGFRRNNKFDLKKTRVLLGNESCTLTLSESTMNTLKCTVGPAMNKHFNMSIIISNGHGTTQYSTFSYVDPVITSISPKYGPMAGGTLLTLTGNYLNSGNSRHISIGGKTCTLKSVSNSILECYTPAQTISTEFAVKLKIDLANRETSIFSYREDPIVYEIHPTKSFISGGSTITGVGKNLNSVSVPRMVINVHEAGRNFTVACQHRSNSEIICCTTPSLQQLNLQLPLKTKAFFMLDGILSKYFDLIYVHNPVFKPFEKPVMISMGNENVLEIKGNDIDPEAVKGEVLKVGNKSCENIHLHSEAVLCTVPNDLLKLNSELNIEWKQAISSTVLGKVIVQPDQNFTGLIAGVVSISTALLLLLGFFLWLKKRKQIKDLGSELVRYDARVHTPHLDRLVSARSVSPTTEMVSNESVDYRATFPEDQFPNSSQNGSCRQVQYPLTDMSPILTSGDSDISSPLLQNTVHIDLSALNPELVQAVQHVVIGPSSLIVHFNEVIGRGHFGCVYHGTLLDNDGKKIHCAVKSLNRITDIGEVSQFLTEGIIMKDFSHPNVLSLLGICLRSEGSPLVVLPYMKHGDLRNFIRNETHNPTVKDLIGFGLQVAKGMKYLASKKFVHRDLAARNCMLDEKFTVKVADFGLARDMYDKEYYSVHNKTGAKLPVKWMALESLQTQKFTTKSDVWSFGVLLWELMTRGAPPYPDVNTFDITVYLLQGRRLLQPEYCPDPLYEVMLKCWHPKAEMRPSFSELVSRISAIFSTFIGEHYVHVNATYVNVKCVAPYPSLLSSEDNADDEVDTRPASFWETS

In the case of `Cn1ncc2ccc(-c3n[nH]c4c3Cc3sc(-c5ccc(N)nc5)cc3-4)cc21` [Compound 92, 5-(3-(1-methyl-1H-indazol-6-yl)-1,4-dihydro-thieno[2′,3′:4,5]cyclopenta [1,2-c]pyrazol-6-yl) pyridin-2-amine], the IC50 on MET kinase is greater than 1 µM; in test [1] it was 1 to 10 µM; in test [2], greater than 10 µM; on PDGFRα kinase it was 0.001 to 0.01 µM; in test [3], 1 to 10 µM; in test [4], less than 0.03 µM.
Turning to `COc1ccc(-c2cc3c(s2)Cc2c(-c4ccc5cnn(C)c5c4)n[nH]c2-3)cn1` [Compound 4, 6-(6-methoxypyridin-3-yl)-3-(1-methyl-1H-indazol-6-yl)-1,4-dihydrothieno [2′,3′:4,5]cyclopenta[1,2-c] pyrazole], the IC50 on MET kinase was greater than 1 µM; in test [1] it was greater than 10 µM; in test [2], greater than 10 µM; on PDGFRα kinase, 0.01 to 0.03 µM; in test [3], greater than 10 µM; in test [4], 0.1 to 0.3 µM.
`Cn1ncc2ccc(-c3n[nH]c4c3Cc3sc(-c5ccc(CN6CCOCC6)cc5OC(F)(F)F)cc3-4)cc21` [Compound 90, 4-(4-(3-(1-methyl-1H-indazol-6-yl)-1,4-dihydro-thieno[2′,3′:4,5]cyclopenta [1,2-c]pyrazol-6-yl)-3-(trifluoromethoxy)benzyl) morpholine]: the IC50 is greater than 1 µM at MET kinase; greater than 10 µM in test [1]; greater than 10 µM in test [2]; 0.1 to 0.3 µM on PDGFRα kinase; greater than 10 µM in test [3]; 0.3 to 1 µM in test [4].
Regarding `Cc1cc(CN2CCOCC2)ccc1-c1cc2c(s1)Cc1c(-c3ccc4cnn(C)c4c3)n[nH]c1-2` [Compound 91, 4-(3-methyl-4-(3-(1-methyl-1H-indazol-6-yl)-1,4-dihydrothieno [2′,3′:4,5]cyclopenta [1,2-c]pyrazol-6-yl)benzyl)morpholine], the IC50 was greater than 1 µM at MET kinase; 1 to 10 µM in test [1]; greater than 10 µM in test [2]; 0.03 to 0.1 µM on PDGFRα kinase; greater than 10 µM in test [3]; 0.1 to 0.3 µM in test [4].
As to `Cc1ccc(-c2cc3c(s2)Cc2c(-c4ccc5cn[nH]c5c4)n[nH]c2-3)cn1` [Compound 30, 3-(1H-indazol-6-yl)-6-(6-methylpyridin-3-yl)-1,4-dihydrothieno[2′,3′:4,5] cyclopenta[1,2-c]pyrazole], the IC50 on MET kinase was greater than 1 µM; in test [1] it was greater than 10 µM; in test [2] it was greater than 10 µM; on PDGFRα kinase, 0.001 to 0.01 µM; in test [3], greater than 10 µM; in test [4], 0.03 to 0.1 µM.
For `CN1CCN(c2ccc(-c3cc4c(s3)Cc3c(-c5ccc6cnn(C)c6c5)n[nH]c3-4)cn2)CC1` [Compound 85, 3-(1-methyl-1H-indazol-6-yl)-6-(6-(4-methyl-piperazin-1-yl)pyridin-3-yl)-1,4-dihydrothieno [2′,3′:4,5]cyclopenta [1,2-c]pyrazole], the IC50 on MET kinase is 0.3 to 1 µM; in test [1], greater than 10 µM; in test [2], greater than 10 µM; on PDGFRα kinase, 0.001 to 0.01 µM; in test [3], 1 to 10 µM; in test [4], 0.3 to 1 µM.
Regarding `Nc1ccc(-c2cc3c(s2)Cc2c(-c4ccc5cn[nH]c5c4)n[nH]c2-3)cn1` [Compound 3, 5-(3-(1H-indazol-6-yl)-1,4-dihydrothieno[2′,3′:4,5]cyclopenta[1,2-c]pyrazol-6-yl)pyridin-2-amine], the IC50 at MET kinase was greater than 1 µM; in test [1] it was greater than 10 µM; in test [2] it was greater than 10 µM; on PDGFRα kinase it was 0.001 to 0.01 µM; in test [3] it was greater than 10 µM; in test [4] it was less than 0.03 µM.
For the compound `COc1ccc(-c2cc3c(s2)Cc2c(-c4ccc5cn[nH]c5c4)n[nH]c2-3)cn1` [Compound 2, 3-(1H-indazol-6-yl)-6-(6-methoxypyridin-3-yl)-1,4-dihydrothieno[2′,3′:4,5] cyclopenta[1,2-c]pyrazole], the IC50 was greater than 1 µM on MET kinase; greater than 10 µM in test [1]; greater than 10 µM in test [2]; 0.01 to 0.03 µM on PDGFRα kinase; greater than 10 µM in test [3]; 0.03 to 0.1 µM in test [4].
Take `Cn1ncc2ccc(-c3n[nH]c4c3Cc3sc(-c5ccc(CN6CCNCC6=O)cc5)cc3-4)cc21` [Compound 101, 1-(4-(3-(1-methyl-1H-indazol-6-yl)-1,4-dihydro-thieno[2′,3′:4,5]cyclopenta [1,2-c]pyrazol-6-yl)benzyl)piperazin-2-one]: the IC50 on MET kinase was greater than 1 µM; in test [1], greater than 10 µM; in test [2], greater than 10 µM; on PDGFRα kinase, 0.001 to 0.01 µM; in test [3], greater than 10 µM; in test [4], less than 0.03 µM.
In the case of `Cn1ncc2ccc(-c3n[nH]c4c3Cc3sc(-c5ccc(CN6CCOCC6)c(F)c5F)cc3-4)cc21` [Compound 88, 4-(2,3-difluoro-4-(3-(1-methyl-1H-indazol-6-yl)-1,4-dihydrothieno [2′,3′:4,5]cyclopenta [1,2-c]pyrazol-6-yl)benzyl)morpholine], the IC50 at MET kinase is greater than 1 µM; in test [1] it was greater than 10 µM; in test [2], greater than 10 µM; on PDGFRα kinase, 0.03 to 0.1 µM; in test [3], greater than 10 µM; in test [4] it was 0.3 to 1 µM.
On to `Cc1n[nH]c2cc(-c3n[nH]c4c3Cc3sc(-c5ccc(CN6CCOCC6)cc5)cc3-4)ccc12` [Compound 81, 4-(4-(3-(3-methyl-1H-indazol-6-yl)-1,4-dihydro-thieno[2′,3′:4,5]cyclopenta [1,2-c]pyrazol-6-yl)benzyl)morpholine], for which the IC50 at MET kinase was greater than 1 µM; in test [1] it was 1 to 10 µM; in test [2] it was greater than 10 µM; on PDGFRα kinase it was 0.001 to 0.01 µM; in test [3], 1 to 10 µM; in test [4], 0.3 to 1 µM.
On to `Cn1ncc2ccc(-c3n[nH]c4c3Cc3sc(-c5ccc(N6CCOCC6)nc5)cc3-4)cc21` [Compound 82, 4-(5-(3-(1-methyl-1H-indazol-6-yl)-1,4-dihydro-thieno[2′,3′:4,5]cyclopenta [1,2-c]pyrazol-6-yl)pyridin-2-yl)morpholine], for which the IC50 on MET kinase was greater than 1 µM; in test [1], greater than 10 µM; in test [2], greater than 10 µM; at PDGFRα kinase it was 0.1 to 0.3 µM; in test [3] it was 1 to 10 µM; in test [4], 0.3 to 1 µM.
Turning to `Nc1ccc(-c2cc3c(s2)Cc2c(-c4ccc5[nH]ncc5c4)n[nH]c2-3)cn1` [Compound 40, 5-(3-(1H-indazol-5-yl)-1,4-dihydrothieno [2′,3′:4,5]cyclopenta [1,2-c]pyrazol-6-yl) pyridin-2-amine], the IC50 was greater than 1 µM on MET kinase; 1 to 10 µM in test [1]; 1 to 10 µM in test [2]; 0.001 to 0.01 µM at PDGFRα kinase; 1 to 10 µM in test [3]; less than 0.03 µM in test [4].
Take `CN1CCN(Cc2ccc(-c3cc4c(s3)Cc3c(-c5ccc6cnn(C)c6c5)n[nH]c3-4)cc2)CC1` [Compound 84, 3-(1-methyl-1H-indazol-6-yl)-6-(4-((4-methylpiperazin-1-yl)methyl)phenyl)-1,4-dihydrothieno [2′,3′:4,5]cyclopenta [1,2-c]pyrazole]: the IC50 on MET kinase is greater than 1 µM; in test [1], greater than 10 µM; in test [2], greater than 10 µM; at PDGFRα kinase, 0.001 to 0.01 µM; in test [3] it was greater than 10 µM; in test [4], less than 0.03 µM.
Take `Cn1ncc2ccc(-c3n[nH]c4c3Cc3sc(-c5ccc(CN6CCOC6=O)cc5)cc3-4)cc21` [Compound 62, 3-(4-(3-(1-methyl-1H-indazol-6-yl)-1,4-dihydro-thieno[2′,3′:4,5]cyclopenta [1,2-c]pyrazol-6-yl)benzyl)oxazolidin-2-one]: the IC50 was greater than 1 µM at MET kinase; greater than 10 µM in test [1]; greater than 10 µM in test [2]; 0.01 to 0.03 µM at PDGFRα kinase; greater than 10 µM in test [3]; 0.03 to 0.1 µM in test [4].
